{
  "source": "patent US20040068015A1",
  "about": "“Remedies for diseases due to stenotic lesions of blood vessel” (priority 2003, published 2004)",
  "key": {"smooth muscle cells": {"system": "smooth muscle cells", "settings": "literature report; cited from earlier work"}, "[1]": {"assay": "Toxicity, single oral administration using rats", "format": "in vivo", "description": "The toxicity of the compounds of the present invention is very low and therefore, the compounds may be considered safe for pharmaceutical use. For example, the minimal lethal dose by single oral administration of N-hydroxy-5-ethoxymethyloxy-2(S)-methyl-4(S)-(4-phenoxybenzoyl)aminopentanamide using rats was 2000 mg/kg."}, "[2]": {"system": "blood vessel smooth muscle cells", "assay": "Effect to inhibit growth of blood vessel smooth muscle cells (BrdU labeling index), hamster blood vessel stricture model", "format": "in vivo", "settings": "oral, twice a day, 20 mg/kg/day; 7th day after the injury", "description": "(§1) Preparation of Hamster Blood Vessel Stricture Model\n(§2) Male hamsters (Gold, SLC, Japan; 40 to 50 g) were allowed to feed on 0.5% cholesterol feed for 4 weeks to increase the LDL value to 4 to 6 times higher than that of normal hamsters. Each hamster was anesthetized with pentobarbital (50 mg/kg), and its carotid inner membrane was peeled using 2FG catheter (Portex) whose tip had been roughly shaved.\n(2) Effect to Inhibit Growth of Blood Vessel Smooth Muscle Cells\nThe drug to be tested, N-hydroxy-5-ethoxymethyloxy-2(S)-methyl-4(S)-(4-phenoxybenzoyl)aminopentaneamide represented by the above formula (II), was orally administered once before the blood vessel inner membrane injury, and then it was orally administered twice a day (20 mg/kg/day). 5-Bromo-2-deoxy-uridine (BrdU: 50 mg/kg) was injected by subcutaneous injection 1, 8, 16 or 24 hours before taking out the inner membrane-injured carotid from each hamster.\nAfter the carotid injury, the injured blood vessels were taken out on the 1st and 7th days to prepare frozen samples. BrdU positive cells were stained with a mouse monoclonal antibody (SIGMA) and then with a peroxidase-conjugated goat anti-mouse IgG antibody and detected with diaminobenzidine (DAB). […] The BrdU labeling index of intermediate membrane and newly formed inner membrane was calculated by the following formula: [formula]"}, "[3]": {"system": "blood vessel smooth muscle cells", "assay": "Effect to inhibit migration of blood vessel smooth muscle cells (histone H1 (+) cells), hamster blood vessel stricture model", "format": "in vivo", "settings": "oral, twice a day, 20 mg/kg/day; 3, 5 and 7th days after carotid injury; in comparison with the control group", "description": "as §1, §2\n(3) Effect to Inhibit Migration of Blood Vessel Smooth Muscle Cells\nAdministration of the drug to be tested and BrdU was carried out in the same manner in the above (2).\nThe injured blood vessels were taken out from the hamsters on 3, 5 and 7th days after the carotid injury. Each blood vessel was washed with PBS and put into 0.3% hydrogen peroxide/cold methanol solution. The sample was incubated for 45 minutes in 5% goat serum diluted with 1% BSA-containing PBS to prevent nonselective linkage of protein. This was incubated for 60 minutes in 1% BSA-containing PBS using a histone H1 monoclonal antibody. Thereafter, each section was incubated for 45 minutes using 1% goat anti-mouse IgG antibody diluted with 1% BSA-containing PBS. By measuring the number of histone H1 (+) cells (cells/mm^2), migration of smooth muscle cells from intermediate membrane to inner membrane was evaluated."}},
  "data": [
    {"smiles": "CNC(=O)[C@H](Cc1ccccc1)NC(=O)[C@H](CC(C)C)[C@H](CSc1cccs1)C(=O)NO", "note": "[BB94, 3(S)-(N-hydroxycarbamoyl)-2(R)-isobutyl-4-(2-thienylthio)butynyl-L-phenylalanine methylamide]", "values": [
      {"measurement": "growth of smooth muscle cells", "setting": "smooth muscle cells", "value": "inhibits migration and growth of smooth muscle cells dose-dependently"},
      {"measurement": "migration of smooth muscle cells", "setting": "smooth muscle cells", "value": "inhibits migration and growth of smooth muscle cells dose-dependently"}
    ]},
    {"smiles": "CNC(=O)[C@H](Cc1c[nH]c2ccccc12)NC(=O)[C@H](CC(=O)NO)CC(C)C", "note": "[GM6001, 3-(N-hydroxycarbamoyl)-2(S)-isobutylpropionyl-L-tryptophan methylamide]", "values": [
      {"measurement": "migration of smooth muscle cells", "setting": "smooth muscle cells", "value": "inhibits migration of smooth muscle cells"}
    ]},
    {"smiles": "CCOCOC[C@H](C[C@H](C)C(=O)NO)NC(=O)c1ccc(Oc2ccccc2)cc1", "note": "[formula (II), N-hydroxy-5-ethoxymethyloxy-2(S)-methyl-4(S)-(4-phenoxybenzoyl)aminopentaneamide]", "values": [
      {"measurement": "minimal lethal dose", "setting": "[1]", "value": 2000, "unit": "mg/kg"},
      {"measurement": "inhibition of growth of blood vessel smooth muscle cells (BrdU labeling index)", "setting": "[2]", "value": "significantly inhibited"},
      {"measurement": "number of smooth muscle cells on the surface of inner membrane (migration; histone H1 (+) cells)", "setting": "[3]", "value": "significantly reduced"}
    ]}
  ]
}
